US20220370609A1, “Polymer complex for anticancer immune therapy based on ultrasound comprising oxalate derivatives and Method of preparation thereof” (RESEARCH & BUSINESS FOUNDATION SUNGKYUNKWAN UNIVERSITY, priority 2021, published 2022)

Test system: CT26 cells
Experiment: Cell death type by FITC-annexin V and PI staining
Format: cell-based
Conditions: 5 μM VPF, 2 hours, ultrasound 5 minutes
Method: CT26 colorectal cells were cultured in an RPMI 1640 medium containing 10% fetal bovine serum (FBS) and 1% antibiotic-antimycotic. 5×10^6 of CT26 cells were treated with Ox@PEG-VPF and the controls for 2 hours based on 5 μM VPF, and then resuspended in 1 ml of the RPMI 1640 medium, followed by ultrasound treatment for 5 minutes.
After 100 μl of the CT26 cell suspension that had been treated with ultrasound was resuspended in 900 μl of the FITC-annexin V/PI mixed solution and maintained for 30 minutes, the resulting cells were washed twice with PBS and observed by confocal microscopy.
Specifically, the Ox@ PEG-VPF of the present invention reacted with a high concentration of ROS present in cancer cells to produce CO2 in the cells, and was treated with a FITC-labeled annexin compound (FITC-annexin V; excitation/emission wavelength—490/525 nm) and propidium iodide (PI; excitation/emission wavelength 535/617 nm) to confirm whether ICD occurs by the cavitation effect and cell membrane rupture caused by ultrasound.

## verteporfin [VPF]
  cell death type (FITC-annexin V / PI staining): induced the apoptosis of cancer cells
